Experiments:
barnyardgrass [1] = experiment: Test C postemergence; type: in vivo, Echinochloa crusgalli; conditions: 10 days, 0 to 100 scale (0 no effect, 100 complete control)
Procedure, shortened: (§1)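 Test material, in non-phytotoxic solvent with surfactant, was sprayed on the soil directly after seeding (preemergence) or on young plants of 2–10 cm with one to two leaves (postemergence). Greenhouse, 10 days; 0–100 visual control scale.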

ragweed [2] = experiment: Test C preemergence; type: in vivo, Ambrosia artemisiifolia; conditions: for Ragweed plant response rating: 500 g ai/ha, preemergence, 0 to 100 scale (0 no effect, 100 complete control); for Plant response rating, Ragweed: Preemergence, 125 g ai/ha, 0 to 100 scale, 0 no effect, 100 complete control
Procedure, shortened: as §1

barnyardgrass [3] = experiment: Test D flooded paddy test; type: in vivo, Echinochloa crus-galli; conditions: 250 g ai/ha, applied to paddy water, visual rating after 13 to 14 days, scale 0 to 100 (0 no effect, 100 complete control)
Procedure, shortened: (§2)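 Post-flood water application at the 2-leaf stage; 3 cm flood depth kept constant; visual control rating 0–100 after 13–14 days greenhouse growth.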

oat, wild [4] = experiment: Test C preemergence; type: in vivo, Avena fatua; conditions: for Oat, Wild plant response rating: 500 g ai/ha, preemergence, 0 to 100 scale (0 no effect, 100 complete control); for Plant response rating, Oat, Wild: Preemergence, 125 g ai/ha, 0 to 100 scale, 0 no effect, 100 complete control
Procedure, shortened: as §1

barnyardgrass [5] = experiment: Test C preemergence; type: in vivo, Echinochloa crusgalli; conditions: for Barnyardgrass plant response rating: 500 g ai/ha, preemergence, 0 to 100 scale (0 no effect, 100 complete control); for Plant response rating, Barnyardgrass: Preemergence, 125 g ai/ha, 0 to 100 scale, 0 no effect, 100 complete control
Procedure, shortened: as §1

ryegrass, Italian [6] = experiment: Test C preemergence; type: in vivo, Lolium multiflorum; conditions: for Ryegrass, Italian plant response rating: 500 g ai/ha, preemergence, 0 to 100 scale (0 no effect, 100 complete control); for Plant response rating, Ryegrass, Italian: Preemergence, 125 g ai/ha, 0 to 100 scale, 0 no effect, 100 complete control
Procedure, shortened: as §1

rice = experiment: Test D flooded paddy test; type: in vivo, Oryza sativa; conditions: 250 g ai/ha, applied to paddy water, visual rating after 13 to 14 days, scale 0 to 100 (0 no effect, 100 complete control)
Procedure, shortened: as §2

horseweed = experiment: Test C postemergence; type: in vivo, Erigeron canadensis; conditions: 10 days, 0 to 100 scale (0 no effect, 100 complete control)
Procedure, shortened: as §1

green foxtail [7] = experiment: Test C postemergence; type: in vivo, Setaria viridis; conditions: 10 days, 0 to 100 scale (0 no effect, 100 complete control)
Procedure, shortened: as §1

ryegrass, Italian [8] = experiment: Test C postemergence; type: in vivo, Lolium multiflorum; conditions: 0 to 100 scale (0 no effect, 100 complete control), 10 days
Procedure, shortened: as §1

green foxtail [9] = experiment: Test C preemergence; type: in vivo, Setaria viridis; conditions: for Foxtail, Green plant response rating: 500 g ai/ha, preemergence, 0 to 100 scale (0 no effect, 100 complete control); for Plant response rating, Foxtail, Green: Preemergence, 125 g ai/ha, 0 to 100 scale, 0 no effect, 100 complete control
Procedure, shortened: as §1

corn [10] = experiment: Test C preemergence; type: in vivo, Zea mays; conditions: for Corn plant response rating: 500 g ai/ha, preemergence, 0 to 100 scale (0 no effect, 100 complete control); for Plant response rating, Corn: Preemergence, 125 g ai/ha, 0 to 100 scale, 0 no effect, 100 complete control
Procedure, shortened: as §1

corn [11] = experiment: Test C postemergence; type: in vivo, Zea mays; conditions: 10 days, 0 to 100 scale (0 no effect, 100 complete control)
Procedure, shortened: as §1

pigweed, palmer [12] = experiment: Test C preemergence; type: in vivo, Amaranthus palmeri; conditions: for Pigweed, Palmer plant response rating: 500 g ai/ha, preemergence, 0 to 100 scale (0 no effect, 100 complete control); for Plant response rating, Pigweed, Palmer: Preemergence, 125 g ai/ha, 0 to 100 scale, 0 no effect, 100 complete control
Procedure, shortened: as §1

pigweed, palmer [13] = experiment: Test C postemergence; type: in vivo, Amaranthus palmeri; conditions: 10 days, 0 to 100 scale (0 no effect, 100 complete control)
Procedure, shortened: as §1

wheat [14] = experiment: Test C preemergence; type: in vivo, Triticum aestivum; conditions: for Wheat plant response rating: 500 g ai/ha, preemergence, 0 to 100 scale (0 no effect, 100 complete control); for Plant response rating, Wheat: Preemergence, 125 g ai/ha, 0 to 100 scale, 0 no effect, 100 complete control
Procedure, shortened: as §1

ragweed [15] = experiment: Test C postemergence; type: in vivo, Ambrosia artemisiifolia; conditions: 0 to 100 scale (0 no effect, 100 complete control), 10 days
Procedure, shortened: as §1

soybean [16] = experiment: Test C postemergence; type: in vivo, Glycine max; conditions: 0 to 100 scale (0 no effect, 100 complete control), 10 days
Procedure, shortened: as §1

oat, wild [17] = experiment: Test C postemergence; type: in vivo, Avena fatua; conditions: 10 days, 0 to 100 scale (0 no effect, 100 complete control)
Procedure, shortened: as §1

galium = experiment: Test C postemergence; type: in vivo, Galium aparine; conditions: 0 to 100 scale (0 no effect, 100 complete control), 10 days
Procedure, shortened: as §1

soybean [18] = experiment: Test C preemergence; type: in vivo, Glycine max; conditions: for Soybean plant response rating: 500 g ai/ha, preemergence, 0 to 100 scale (0 no effect, 100 complete control); for Plant response rating, Soybean: Preemergence, 125 g ai/ha, 0 to 100 scale, 0 no effect, 100 complete control
Procedure, shortened: as §1

kochia [19] = experiment: Test C postemergence; type: in vivo, Bassia scoparia; conditions: 10 days, 0 to 100 scale (0 no effect, 100 complete control)
Procedure, shortened: as §1

blackgrass [20] = experiment: Test C postemergence; type: in vivo, Alopecurus myosuroides; conditions: 10 days, 0 to 100 scale (0 no effect, 100 complete control)
Procedure, shortened: as §1

sedge, umbrella = experiment: Test D flooded paddy test; type: in vivo, Cyperus difformis; conditions: 250 g ai/ha, applied to paddy water, visual rating after 13 to 14 days, scale 0 to 100 (0 no effect, 100 complete control)
Procedure, shortened: as §2

blackgrass [21] = experiment: Test C preemergence; type: in vivo, Alopecurus myosuroides; conditions: for Blackgrass plant response rating: 500 g ai/ha, preemergence, 0 to 100 scale (0 no effect, 100 complete control); for Plant response rating, Blackgrass: Preemergence, 125 g ai/ha, 0 to 100 scale, 0 no effect, 100 complete control
Procedure, shortened: as §1

kochia [22] = experiment: Test C preemergence; type: in vivo, Bassia scoparia; conditions: for Kochia plant response rating: 500 g ai/ha, preemergence, 0 to 100 scale (0 no effect, 100 complete control); for Plant response rating, Kochia: Preemergence, 125 g ai/ha, 0 to 100 scale, 0 no effect, 100 complete control
Procedure, shortened: as §1

ducksalad = experiment: Test D flooded paddy test; type: in vivo, Heteranthera limosa; conditions: 250 g ai/ha, applied to paddy water, visual rating after 13 to 14 days, scale 0 to 100 (0 no effect, 100 complete control)
Procedure, shortened: as §2

wheat [23] = experiment: Test C postemergence; type: in vivo, Triticum aestivum; conditions: 0 to 100 scale (0 no effect, 100 complete control), 10 days
Procedure, shortened: as §1

COC[C@H]1CN(C(=O)c2cc(-n3cnc(C(C)(C)O)n3)ccc2OC)c2cccc(Cl)c2O1 [Compound 408]
90: Ragweed plant response rating (ragweed [2]) | Plant response rating, Oat, Wild (oat, wild [17]; 500 g ai/ha, postemergence) | Plant response rating, Kochia (kochia [19]; 500 g ai/ha, postemergence) | Plant response rating, Ducksalad (Flood) (ducksalad)
60: Plant response rating, Barnyardgrass (barnyardgrass [1]; 500 g ai/ha, postemergence) | Plant response rating, Ragweed (ragweed [2]) | Oat, Wild plant response rating (oat, wild [4]) | Plant response rating, Barnyardgrass (barnyardgrass [5]) | Plant response rating, Ryegrass, Italian (ryegrass, Italian [6]) | Plant response rating, Horseweed (horseweed; 500 g ai/ha, postemergence) | Plant response rating, Foxtail, Green (green foxtail [7]; 500 g ai/ha, postemergence) | Corn plant response rating (corn [10]) | Wheat plant response rating (wheat [14])
10: Plant response rating, Barnyardgrass (barnyardgrass [1]; Postemergence, 125 g ai/ha) | Plant response rating, Barnyardgrass (Flood) (barnyardgrass [3]) | Plant response rating, Corn (corn [11]; Postemergence, 125 g ai/ha) | Plant response rating, Blackgrass (blackgrass [21])
100: Barnyardgrass plant response rating (barnyardgrass [5]) | Foxtail, Green plant response rating (green foxtail [9]) | Plant response rating, Foxtail, Green (green foxtail [9]) | Pigweed, Palmer plant response rating (pigweed, palmer [12]) | Plant response rating, Pigweed, Palmer (pigweed, palmer [12]) | Plant response rating, Soybean (soybean [16]; Postemergence, 125 g ai/ha) | Plant response rating, Galium (galium; Postemergence, 125 g ai/ha) | Soybean plant response rating (soybean [18]) | Kochia plant response rating (kochia [22])
70: Plant response rating, Ryegrass, Italian (ryegrass, Italian [8]; Postemergence, 125 g ai/ha) | Plant response rating, Kochia (kochia [19]; Postemergence, 125 g ai/ha) | Plant response rating, Blackgrass (blackgrass [20]; 500 g ai/ha, postemergence) | Plant response rating, Kochia (kochia [22])
20: Plant response rating, Foxtail, Green (green foxtail [7]; Postemergence, 125 g ai/ha) | Plant response rating, Wheat (wheat [14])
98: Plant response rating, Sedge, Umbrella (Flood) (sedge, umbrella)
30: Plant response rating, Oat, Wild (oat, wild [4]) | Plant response rating, Oat, Wild (oat, wild [17]; Postemergence, 125 g ai/ha) | Plant response rating, Wheat (wheat [23]; Postemergence, 125 g ai/ha)
80: Ryegrass, Italian plant response rating (ryegrass, Italian [6]) | Plant response rating, Corn (corn [11]; 500 g ai/ha, postemergence) | Plant response rating, Pigweed, Palmer (pigweed, palmer [13]; 500 g ai/ha, postemergence) | Plant response rating, Pigweed, Palmer (pigweed, palmer [13]; Postemergence, 125 g ai/ha) | Plant response rating, Soybean (soybean [18]) | Blackgrass plant response rating (blackgrass [21])
0: Plant response rating, Horseweed (horseweed; Postemergence, 125 g ai/ha) | Plant response rating, Corn (corn [10]) | Plant response rating, Blackgrass (blackgrass [20]; Postemergence, 125 g ai/ha)
15: Plant response rating, Rice (Flood) (rice)
50: Plant response rating, Ragweed (ragweed [15]; Postemergence, 125 g ai/ha)

CCOCC1CN(C(=O)c2cc(-n3cnc(C4CCC4)n3)ccc2OC)c2cccc(Cl)c2O1 (stereo not drawn) [Compound 377]
60: Plant response rating, Ryegrass, Italian (ryegrass, Italian [6]) | Plant response rating, Soybean (soybean [18])
30: Plant response rating, Barnyardgrass (barnyardgrass [1]; Postemergence, 125 g ai/ha) | Plant response rating, Ragweed (ragweed [2]) | Plant response rating, Horseweed (horseweed; 500 g ai/ha, postemergence) | Plant response rating, Corn (corn [11]; 500 g ai/ha, postemergence) | Plant response rating, Wheat (wheat [23]; 500 g ai/ha, postemergence)
15: Plant response rating, Ducksalad (Flood) (ducksalad)
55: Plant response rating, Sedge, Umbrella (Flood) (sedge, umbrella)
40: Plant response rating, Barnyardgrass (barnyardgrass [5]) | Plant response rating, Foxtail, Green (green foxtail [7]; 500 g ai/ha, postemergence) | Plant response rating, Ryegrass, Italian (ryegrass, Italian [8]; Postemergence, 125 g ai/ha)
20: Oat, Wild plant response rating (oat, wild [4]) | Plant response rating, Oat, Wild (oat, wild [4]) | Plant response rating, Foxtail, Green (green foxtail [7]; Postemergence, 125 g ai/ha) | Corn plant response rating (corn [10]) | Plant response rating, Corn (corn [11]; Postemergence, 125 g ai/ha) | Wheat plant response rating (wheat [14]) | Plant response rating, Blackgrass (blackgrass [20]; 500 g ai/ha, postemergence) | Blackgrass plant response rating (blackgrass [21]) | Plant response rating, Wheat (wheat [23]; Postemergence, 125 g ai/ha)
50: Plant response rating, Barnyardgrass (barnyardgrass [1]; 500 g ai/ha, postemergence) | Plant response rating, Horseweed (horseweed; Postemergence, 125 g ai/ha) | Plant response rating, Ryegrass, Italian (ryegrass, Italian [8]; 500 g ai/ha, postemergence) | Plant response rating, Foxtail, Green (green foxtail [9])
90: Plant response rating, Pigweed, Palmer (pigweed, palmer [13]; Postemergence, 125 g ai/ha) | Plant response rating, Ragweed (ragweed [15]; 500 g ai/ha, postemergence) | Soybean plant response rating (soybean [18]) | Plant response rating, Kochia (kochia [19]; 500 g ai/ha, postemergence) | Plant response rating, Kochia (kochia [19]; Postemergence, 125 g ai/ha)
80: Plant response rating, Ragweed (ragweed [15]; Postemergence, 125 g ai/ha)
70: Ragweed plant response rating (ragweed [2]) | Ryegrass, Italian plant response rating (ryegrass, Italian [6]) | Plant response rating, Kochia (kochia [22])
0: Plant response rating, Barnyardgrass (Flood) (barnyardgrass [3]) | Plant response rating, Rice (Flood) (rice) | Plant response rating, Corn (corn [10]) | Plant response rating, Wheat (wheat [14]) | Plant response rating, Oat, Wild (oat, wild [17]; 500 g ai/ha, postemergence) | Plant response rating, Oat, Wild (oat, wild [17]; Postemergence, 125 g ai/ha) | Plant response rating, Blackgrass (blackgrass [20]; Postemergence, 125 g ai/ha) | Plant response rating, Blackgrass (blackgrass [21])
100: Barnyardgrass plant response rating (barnyardgrass [5]) | Foxtail, Green plant response rating (green foxtail [9]) | Pigweed, Palmer plant response rating (pigweed, palmer [12]) | Plant response rating, Pigweed, Palmer (pigweed, palmer [12]) | Plant response rating, Pigweed, Palmer (pigweed, palmer [13]; 500 g ai/ha, postemergence) | Plant response rating, Soybean (soybean [16]; 500 g ai/ha, postemergence) | Plant response rating, Soybean (soybean [16]; Postemergence, 125 g ai/ha) | Plant response rating, Galium (galium; 500 g ai/ha, postemergence) | Plant response rating, Galium (galium; Postemergence, 125 g ai/ha) | Kochia plant response rating (kochia [22])
